Article PMC11314561, “Design and Synthesis of Novel Aminoindazole-pyrrolo[2,3-b]pyridine Inhibitors of IKKα That Selectively Perturb Cellular Non-Canonical NF-κB Signalling” (Molecules, 2024)

Legend:
Turbidimetric solubility = format: physicochemical; settings: pH 7.4, aqueous buffer, kinetic from dmso stock, 0.01 M phosphate-buffered saline pH7.4
Experimental: Pharmacokinetic studies were contracted to Sygnature Discovery Limited. Turbidimetric Solubility was determined by diluting compound solutions (1 μM, 3 μM, 10 μM, 30 μM, 100 μM) prepared in DMSO into 0.01 M phosphate-buffered saline pH7.4. Turbidimetry was used as the endpoint by measuring absorbance at 620 nm.

IKKα = target: T1, IKKα (Homo sapiens, UniProt O15111); experiment: DELFIA kinase assay, IKKα; format: biochemical; settings: DELFIA kinase assay
T1 sequence (O15111 1-745): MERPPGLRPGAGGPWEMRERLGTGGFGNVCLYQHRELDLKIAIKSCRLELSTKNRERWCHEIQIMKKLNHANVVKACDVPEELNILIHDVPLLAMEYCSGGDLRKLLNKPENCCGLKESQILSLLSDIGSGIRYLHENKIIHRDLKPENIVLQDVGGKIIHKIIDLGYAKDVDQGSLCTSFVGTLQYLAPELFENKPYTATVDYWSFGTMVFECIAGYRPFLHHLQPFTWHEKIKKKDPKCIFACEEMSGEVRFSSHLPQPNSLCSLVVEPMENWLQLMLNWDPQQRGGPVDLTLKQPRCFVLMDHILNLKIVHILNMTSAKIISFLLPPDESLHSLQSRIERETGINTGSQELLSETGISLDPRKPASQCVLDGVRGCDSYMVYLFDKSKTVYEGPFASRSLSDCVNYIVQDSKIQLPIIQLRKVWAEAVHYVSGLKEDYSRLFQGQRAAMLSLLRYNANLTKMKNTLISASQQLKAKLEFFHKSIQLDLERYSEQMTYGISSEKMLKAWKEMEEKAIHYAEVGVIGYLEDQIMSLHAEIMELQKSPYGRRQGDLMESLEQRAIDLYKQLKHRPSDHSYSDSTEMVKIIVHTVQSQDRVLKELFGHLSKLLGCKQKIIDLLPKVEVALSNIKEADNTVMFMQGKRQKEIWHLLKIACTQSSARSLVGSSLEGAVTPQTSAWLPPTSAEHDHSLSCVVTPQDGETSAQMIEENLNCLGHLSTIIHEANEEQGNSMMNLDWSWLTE
Source text: To examine the pyrrolo[2,3-b]pyridines as an alternative scaffold, we adopted the AIPP core because it had similar dimensions to SU909 (1), with HBD/HBA motifs positioned at the scaffold extremities to interact with both the hinge region and the G-loop wall of IKKα, a rationale we had previously proposed as the basis for imparting selectivity. A preliminary set of AIPP derivatives was designed and synthesised to explore its utility as an IKK-targeting scaffold, whilst incorporating additional functionality through which to introduce selectivity for the IKKα isoform (2–4; Figure 3). This was achieved by initially adopting two different approaches: either appending a hydrophobic moiety to the pyrrolo[2,3-b]pyridine motif as a fused form to afford the tricyclic derivatives 2 and 3, or as a phenyl substituent to introduce flexibility with respect to the central pyrrolo[2,3-b]pyridine moiety in 4. When assessed against IKKα and IKKβ using our in-house DELFIA kinase assay […] The pyrrolo[2,3-b]pyridine was bound to the hinge region in the classical HBA/HBD motif with the GK+3 amide backbone, whilst the aminoindazole projected towards the top of the pocket to interact with the G-loop (Figure 4A). […] In both isoforms, the 2-phenyl moiety protruded away from the hinge towards the exposed solvent area.
(§1) IKKα and IKKβ inhibitory activity were determined using a dissociation-enhanced ligand fluorescent immunoassay (DELFIA) based on the protocol of HTScan™ IKKβ Kinase Assay (Cell Signaling Technology, Danvers, MA, USA) as described in [24].

IKKβ = target: T2, IKKβ (Homo sapiens, UniProt O14920); experiment: DELFIA kinase assay, IKKβ; format: biochemical; settings: read-out: Ki Values IKKβ
T2 sequence (O14920 1-756): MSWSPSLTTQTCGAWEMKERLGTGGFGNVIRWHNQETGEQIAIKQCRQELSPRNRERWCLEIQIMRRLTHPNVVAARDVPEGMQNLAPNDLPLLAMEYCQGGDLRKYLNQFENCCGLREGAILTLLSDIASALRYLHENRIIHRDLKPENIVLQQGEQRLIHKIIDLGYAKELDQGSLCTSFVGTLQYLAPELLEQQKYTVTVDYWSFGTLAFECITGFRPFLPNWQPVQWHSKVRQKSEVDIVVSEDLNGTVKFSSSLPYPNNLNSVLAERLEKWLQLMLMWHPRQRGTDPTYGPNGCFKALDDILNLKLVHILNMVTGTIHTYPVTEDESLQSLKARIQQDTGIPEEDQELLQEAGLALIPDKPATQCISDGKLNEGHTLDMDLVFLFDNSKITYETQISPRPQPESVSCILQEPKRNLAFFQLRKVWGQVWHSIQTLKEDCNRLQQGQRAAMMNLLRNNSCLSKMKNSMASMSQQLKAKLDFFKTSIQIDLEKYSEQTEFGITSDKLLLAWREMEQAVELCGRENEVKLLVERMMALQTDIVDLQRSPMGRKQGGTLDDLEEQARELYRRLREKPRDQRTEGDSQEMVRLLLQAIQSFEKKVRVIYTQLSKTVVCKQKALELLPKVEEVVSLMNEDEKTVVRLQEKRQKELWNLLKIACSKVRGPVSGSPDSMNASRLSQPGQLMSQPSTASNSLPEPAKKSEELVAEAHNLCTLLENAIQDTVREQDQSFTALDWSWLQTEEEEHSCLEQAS
Experimental: as §1

[1] = Mouse hepatocyte intrinsic clearance and half-life; format: in vitro ADME; settings: mouse CD1 hepatocytes
Experimental: Intrinsic clearance and half-life were determined using cryopreserved pooled mouse CD1 hepatocytes. Test compounds were analysed at 1 µM in Williams Media E buffer (0.01% DMSO) at a cell density of 0.5 × 10^6 cells mL^–1. Cells were incubated at 37 °C for one hour with shaking, and compound depletion was measured by LC-MS/MS at six time points (0.25, 5, 10, 20, 40, and 60 min).

solubility (Turbidimetric solubility): > 100 µM | Ki (IKKα): 6 nM | Ki (IKKβ): 12 nM | half-life at 1 µM ([1]; cryopreserved pooled hepatocytes): 2.02 h | Mouse Hepatocyte Clearance ([1]; 1 µM): 11 μL/min/10^6 Cells
SMILES: Nc1n[nH]c2ccc(-c3ccnc4[nH]c(-c5ccnc(OCc6ccncc6)c5)cc34)cc12 [Compound 6k]
